# Laboratory results: US7109177B2, “Methods and compositions for the manufacture of C-3′ and C-4′ anthracycline antibiotics” (Houston Pharmaceuticals, Inc., priority 1999, dated 2006)
# “And” between values parts separate entries of the source, which are not always exact repeats. Equal entries are not always repeated. Where two headings read alike, the source gives them in different places.
# Tests used:
# [1] = system: sensitive and MDR tumor cell lines; assay: In vitro evaluation of cytotoxicity compared with DOX (cell line not given); type: cell-based, human; conditions: for Cytotoxicity compared to DOX, in words: in vitro evaluation; for Direct comparison of cytotoxicity with DOX, in words: effect of C-3′ and C-4′ substitutions on potency
# Experimental: (§1) In vitro drug cytotoxicities against human breast carcinoma wild-type MCF-7 and MRP-resistant MCF-7NP-16 cells were assessed by using the […], as previously reported (Green et al., 1984). […] Drugs were then added to the wells to achieve a final drug concentration ranging from 0.1 to 50 μg/mL. Four wells were used for each concentration. […] After a 4-hour incubation, 100 μL of buffer containing 50% N,N-dimethylformamide and 20% SDS was added to solubilize the MTT formazan. […] Results and Discussion
# (§2) Thus, for the in vitro evaluation of substituted anthracyclines having C-3′ alkylated anthracyclines modified at benzyl ring and having 4′-substituted-benzylated anthracyclines, the inventors selected two sensitive cell lines: a human carcinoma KB and MCF-7 human breast cancer, the multi-drug-resistant (MDR) counterpart of KB (KBV1 carcinoma), which overexpresses MDR1 gene that encodes a membrane transport glycoprotein (P-gp), the MCF-7NVP-16 cell line that overexpresses the multi-drug-resistant associated protein (MRP), and the MCF-7/dox cell line which overexpresses MDR1 gene.
# breast tumors = assay: In vivo prevention of tumor development in a mouse cancer model; conditions: compared with buffer-treated control mice that develop tumors
# Experimental: In an initial round of in vivo trials, a mouse model of human cancer with the histologic features and metastatic potential resembling tumors seen in humans (Katsumata et al., 1995) is used. The animals are treated with analogs of anthracyclines having C-3′-substitutions as described or anthracycline analogs with C-4′-substitutions synthesized in the present invention to determine the suppression of tumor development.
# Two groups of mice of a suitable cancer model are treated with doses of substituted anthracyclines with substitutions at the C-3′-sugar or having C-4′-substituted sugar moietied. Several combinations and concentrations of the substituted anthracyclines are tested. Control mice are treated with buffer only.
# The effect of substituted anthracyclines on the development of breast tumors is compared with the control group by examination of tumor size and histopathologic examination (breast tissue is cut and stained with hematoxylin and eosin) of breast tissue.
# human carcinoma KB cells = assay: MTT cytotoxicity assay, sensitive KB cells; type: cell-based
# Experimental: as §1, §2
# [2] = system: KB-V1 (KBV1) carcinoma cells; assay: MTT cytotoxicity assay, multi-drug-resistant KB-V1 cells (MDR1/P-gp); type: cell-based, human; parameters: ID50 KBV1: unit not given here; conditions: for Effectiveness as measured by resistance index (RI), in words: in vitro, compared with daunorubicin or doxorubicin
# Experimental: as §1, §2
# CEM leukemic cells = assay: Quantitative apoptotic DNA fragmentation assay; type: cell-based; conditions: 24 h incubation
# From the text: Results are from two independent studies carried out in duplicate.
# MCF-7/DOX cells = assay: MTT cytotoxicity assay, MCF-7/DOX cells (MDR1)
# [3] = system: human breast carcinoma MCF-7 cells; parameters: unit not given beside the values
# [4] = Table 2, MTT assay, mean of at least 4 experiments
# Experimental for MCF-7/VP-16 cells: Compounds synthesized using the methods described above were tested using a standard MTT. assay (Green et al., 1984) against human carcinoma sensitive (KB) and multi drug-resistant (KBV1) cells and MCF-7 and MCF-7/VP-16 resistant cells characterized as having the MRP (multi-drug resistant associated protein) phenotype.
# In vitro drug cytotoxicities against human breast carcinoma wild-type MCF-7 and MRP-resistant MCF-7NP-16 cells were assessed by using the MT reduction assay, as previously reported (Green et al., 1984). […] Drugs were then added to the wells to achieve a final drug concentration ranging from 0.1 to 50 μg/mL. Four wells were used for each concentration. […] After a 4-hour incubation, 100 μL of buffer containing 50% N,N-dimethylformamide and 20% SDS was added to solubilize the MTT formazan.
smiles,measurement,setting,value
"COc1cccc2c1C(=O)c1c(O)c3c(c(O)c1C2=O)C[C@@](O)(C(=O)CO)C[C@@H]3O[C@H]1C[C@H](N)[C@H](OCc2c(F)cccc2F)[C@H](C)O1 [WP799, 4′-(2,6-difluoro-benzyloxy)-doxorubicine]","Cytotoxicity compared to DOX, in words",[1],unusually potent cytotoxic agents
same,"Tumor development in treated mice, predicted",breast tumors,resistant to tumor development
"COc1cccc2c1C(=O)c1c(O)c3c(c(O)c1C2=O)C[C@@](O)(C(=O)CO)C[C@@H]3O[C@H]1C[C@H](O)[C@H](OCc2ccccc2)[C@H](C)O1 [WP727, 4-O-benzyl-3-deamino-3-hydroxy-doxorubicin]","Cytotoxicity compared to DOX, in words",[1],unusually potent cytotoxic agents
same,"Tumor development in treated mice, predicted",breast tumors,resistant to tumor development
"CC(=O)O[C@H]1[C@@H](N=[N+]=[N-])C[C@@H](O[Si](C)(C)C(C)(C)C)O[C@H]1C [WP417, 4-O-acetyl-3-Azido-1-O-t-butyldimethylsilyl-2,3,6-trideoxy-β-L-lyxo hexapyranose]","Tumor development in treated mice, predicted",breast tumors,resistant to tumor development
"CC(=O)[C@]1(O)Cc2c(O)c3c(c(O)c2[C@@H](O[C@H]2C[C@H](N)[C@H](OCc4ccccc4)[C@H](C)O2)C1)C(=O)c1ccccc1C3=O [WP783, 4′-O-Benzyl-4-demethoxydaunorubicin]",ID50 KB,"human carcinoma KB cells; Table 3, under EXP. 2",0.43 ± 0.21
same,ID50 KBV1,"[2]; Table 3, under EXP. 2",1.1 ± 0.8
same,RI (KBV1 vs KB),"[2]; Table 3, under EXP. 2",2.6
same,"Effectiveness as measured by resistance index (RI), in words",[2],significantly more effective
same,"Direct comparison of cytotoxicity with DOX, in words",[1],drastically increase the potency
same,"Cytotoxicity compared to DOX, in words",[1],unusually potent cytotoxic agents
same,"Tumor development in treated mice, predicted",breast tumors,resistant to tumor development
"CCCCC(=O)OCC(=O)[C@]1(O)Cc2c(O)c3c(c(O)c2[C@@H](O[C@H]2C[C@H](O)[C@H](OCc4ccccc4)[C@H](C)O2)C1)C(=O)c1c(OC)cccc1C3=O [WP571, 3-deamino-4-O-benzyl-3-O-hydroxy-14-O-pentanoyl-doxorubicin]","Cytotoxicity compared to DOX, in words",[1],unusually potent cytotoxic agents
same,"Tumor development in treated mice, predicted",breast tumors,resistant to tumor development
"COc1cccc2c1C(=O)c1c(O)c3c(c(O)c1C2=O)C[C@@](O)(C(=O)CO)C[C@@H]3O[C@H]1C[C@H](N)[C@H](OCc2ccccc2)[C@H](C)O1 [WP744, 4′-O-Benzyl-doxorubicin]",ID50 KB,"human carcinoma KB cells; Table 3, EXP. 1",1.44 ± 0.45
same,ID50 MCF-7/VP-16,"MCF-7/VP-16 cells; Table 3, EXP. 1",2.3 ± 1.9
same,RI (MCF-7/VP-16 vs MCF-7),"MCF-7/VP-16 cells; Table 3, EXP. 1",1.41
same,RI (MCF-7/VP-16 vs MCF-7),"MCF-7/VP-16 cells; Table 3, under EXP. 2",1.4 and 1.6
same,"Fragmented DNA, % Total DNA",CEM leukemic cells; 0.05 μM,17.8%
same,"Fragmented DNA, % Total DNA",CEM leukemic cells; 0.1 μM,31.3%
same,"Fragmented DNA, % Total DNA",CEM leukemic cells; 0.5 μM,46.7%
same,ID50 KBV1,"[2]; Table 3, EXP. 1",2.76 ± 0.52
same,RI (KBV1 vs KB),"[2]; Table 3, EXP. 1",1.84
same,ID50 KBV1,"[2]; Table 3, under EXP. 2",2.1 ± 0.5 and 4.07 ± 1.85
same,"Effectiveness as measured by resistance index (RI), in words",[2],significantly more effective
same,"Cytotoxicity compared to DOX, in words",[1],unusually potent cytotoxic agents
same,ID50 MCF-7/DOX,"MCF-7/DOX cells; Table 3, EXP. 1",5.25
same,RI (MCF-7/DOX vs MCF-7),"MCF-7/DOX cells; Table 3, EXP. 1",3.22
same,ID50 MCF-7/DOX,"MCF-7/DOX cells; Table 3, under EXP. 2",0.89 ± 0.10
same,RI (MCF-7/DOX vs MCF-7),"MCF-7/DOX cells; Table 3, under EXP. 2",2.41
same,ID50 MCF-7,"[3]; Table 3, EXP. 1",1.63 ± 0.5
same,"Tumor development in treated mice, predicted",breast tumors,resistant to tumor development
"COc1cccc2c1C(=O)c1c(O)c3c(c(O)c1C2=O)C[C@@](O)(C(=O)CO)C[C@@H]3O[C@H]1C[C@H](N)[C@@H](OCc2ccccc2)[C@H](C)O1 [WP750, 4′-O-Benzyl-4′epi-doxorubicin]",ID50 KB,"human carcinoma KB cells; Table 3, under EXP. 2",6.4
same,ID50 KBV1,"[2]; Table 3, under EXP. 2",56 ± 29
same,RI (KBV1 vs KB),"[2]; Table 3, under EXP. 2",8.8
same,"Effectiveness as measured by resistance index (RI), in words",[2],significantly more effective
same,"Direct comparison of cytotoxicity with DOX, in words",[1],drastically increase the potency
same,"Cytotoxicity compared to DOX, in words",[1],unusually potent cytotoxic agents
same,"Tumor development in treated mice, predicted",breast tumors,resistant to tumor development
"C[C@@H]1O[C@H](O[Si](C)(C)C(C)(C)C)C[C@H](N=[N+]=[N-])[C@@H]1O [WP418, t-Butyldimethylsilyl 3-azido- -2,3,6-trideoxy-β-L-lyxo hexapyranose]","Tumor development in treated mice, predicted",breast tumors,resistant to tumor development
"COc1cccc2c1C(=O)c1c(O)c3c(c(O)c1C2=O)C[C@@](O)(C(=O)CO)C[C@@H]3O[C@H]1C[C@H](N)[C@H](O)[C@H](C)O1 [DOX, doxorubicin, reference compound]",ID50 KB,human carcinoma KB cells; [4],0.50 ± 0.0 µg/mL and 0.43 ± 0.19 µg/mL
same,ID50 KB,"human carcinoma KB cells; Table 3, EXP. 1",2.35
same,ID50 MCF-7/VP-16,"MCF-7/VP-16 cells; Table 3, EXP. 1",3.0
same,RI (MCF-7/VP-16 vs MCF-7),"MCF-7/VP-16 cells; Table 3, EXP. 1",10
same,ID50 MCF-7/VP-16,"MCF-7/VP-16 cells; Table 3, under EXP. 2",8.3 ± 0.5 and 6.87 ± 0.58
same,RI (MCF-7/VP-16 vs MCF-7),"MCF-7/VP-16 cells; Table 3, under EXP. 2",16.6 and 13
same,"Fragmented DNA, % Total DNA",CEM leukemic cells; 0.1 μM,−0.2%
same,"Fragmented DNA, % Total DNA",CEM leukemic cells; 0.5 μM,27.1%
same,"Fragmented DNA, % Total DNA",CEM leukemic cells; 1 μM,28.7%
same,"Fragmented DNA, % Total DNA",CEM leukemic cells; 2 μM,38.3%
same,ID50 KB-V1,[2]; [4],>100 µg/mL and 109 ± 28 µg/mL
same,RI (resistance index) KB-V1 vs KB,"[2]; Table 2, higher RI = less effective against MDR",>200
same,ID50 KBV1,"[2]; Table 3, EXP. 1",>100
same,RI (KBV1 vs KB),"[2]; Table 3, EXP. 1",>42.6
same,ID50 KBV1,"[2]; Table 3, under EXP. 2",174 ± 32 and >100
same,ID50 MCF-7/DOX,"MCF-7/DOX cells; Table 3, EXP. 1",>100
same,RI (MCF-7/DOX vs MCF-7),"MCF-7/DOX cells; Table 3, EXP. 1",>333
same,ID50 MCF-7/DOX,"MCF-7/DOX cells; Table 3, under EXP. 2",>100
same,RI (MCF-7/DOX vs MCF-7),"MCF-7/DOX cells; Table 3, under EXP. 2",>189
same,ID50 MCF-7,"[3]; Table 3, EXP. 1",0.3
same,ID50 MCF-7,"[3]; Table 3, under EXP. 2",0.50 ± 0.26 and 0.53 ± 0.25
"CC(=O)[C@]1(O)Cc2c(O)c3c(c(O)c2[C@@H](O[C@H]2C[C@H](N)[C@H](OCc4ccc(F)cc4)[C@H](C)O2)C1)C(=O)c1ccccc1C3=O [WP797, 4′-(4-Fluoro-benzyloxy)-4-demethoxydaunorubicine]","Cytotoxicity compared to DOX, in words",[1],unusually potent cytotoxic agents
same,"Tumor development in treated mice, predicted",breast tumors,resistant to tumor development
